According to PubChem BioAssay (NCI):
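Test compounds were applied to cells in 96-well plates for 48 hours at 5 doses. TGI marks complete inhibition of growth.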

Legend:
Experiment in all cases: NCI-60 cell line screen, 48 h
LOX IMVI melanoma = system: LOX IMVI melanoma
NCI-H226 lung = system: NCI-H226 lung
MOLT-4 leukemia = system: MOLT-4 leukemia
TK-10 renal = system: TK-10 renal
M14 melanoma = system: M14 melanoma
HOP-92 NSCLC = system: HOP-92 NSCLC
OVCAR-8 ovarian = system: OVCAR-8 ovarian
SK-MEL-5 melanoma = system: SK-MEL-5 melanoma
MALME-3M melanoma = system: MALME-3M melanoma
RXF-631 renal = system: RXF-631 renal
UACC-62 melanoma = system: UACC-62 melanoma
OVCAR-3 ovarian = system: OVCAR-3 ovarian
KM20L2 colon = system: KM20L2 colon
DMS 273 small cell lung = system: DMS 273 small cell lung
U251 CNS = system: U251 CNS
SNB-19 CNS = system: SNB-19 CNS
EKVX NSCLC = system: EKVX NSCLC
UO-31 renal = system: UO-31 renal
SF-268 CNS = system: SF-268 CNS
NCI-H522 lung = system: NCI-H522 lung
A498 renal = system: A498 renal
SK-MEL-28 melanoma = system: SK-MEL-28 melanoma
COLO 205 colon = system: COLO 205 colon
ACHN renal = system: ACHN renal
SNB-75 CNS = system: SNB-75 CNS
M19-MEL melanoma = system: M19-MEL melanoma
HCT-15 colon = system: HCT-15 colon
NCI-H23 lung = system: NCI-H23 lung
SK-MEL-2 melanoma = system: SK-MEL-2 melanoma
SF-539 CNS = system: SF-539 CNS
DMS 114 small cell lung = system: DMS 114 small cell lung
SNB-78 CNS = system: SNB-78 CNS
SK-OV-3 ovarian = system: SK-OV-3 ovarian
NCI-H460 lung = system: NCI-H460 lung
HT29 colon = system: HT29 colon
DLD-1 colon = system: DLD-1 colon
IGROV1 ovarian = system: IGROV1 ovarian
HL-60(TB) leukemia = system: HL-60(TB) leukemia
SW-620 colon = system: SW-620 colon
CCRF-CEM leukemia = system: CCRF-CEM leukemia
CAKI-1 renal = system: CAKI-1 renal
SN12C renal = system: SN12C renal
SF-295 CNS = system: SF-295 CNS
LXFL 529 NSCLC = system: LXFL 529 NSCLC
RPMI-8226 leukemia = system: RPMI-8226 leukemia
K-562 leukemia = system: K-562 leukemia
HOP-18 NSCLC = system: HOP-18 NSCLC
786-0 renal = system: 786-0 renal
RXF 393 renal = system: RXF 393 renal
HOP-62 NSCLC = system: HOP-62 NSCLC
A549 NSCLC = system: A549 NSCLC
SR leukemia = system: SR leukemia
OVCAR-4 ovarian = system: OVCAR-4 ovarian
UACC-257 melanoma = system: UACC-257 melanoma
HCT-116 colon = system: HCT-116 colon
XF 498 CNS = system: XF 498 CNS
KM12 colon = system: KM12 colon
HCC-2998 colon = system: HCC-2998 colon

CCOCc1cc(=O)c2c(O)cc3c(c2o1)CCC(C)(C)O3
TGI (LOX IMVI melanoma): > 100 µM
TGI (NCI-H226 lung): > 100 µM
TGI (MOLT-4 leukemia): > 100 µM
TGI (TK-10 renal): > 100 µM
TGI (M14 melanoma): > 100 µM
TGI (HOP-92 NSCLC): > 100 µM
TGI (OVCAR-8 ovarian): > 100 µM
TGI (SK-MEL-5 melanoma): > 100 µM
TGI (MALME-3M melanoma): > 100 µM
TGI (RXF-631 renal): > 100 µM
TGI (UACC-62 melanoma): > 100 µM
TGI (OVCAR-3 ovarian): > 100 µM
TGI (KM20L2 colon): > 100 µM
TGI (DMS 273 small cell lung): > 100 µM
TGI (U251 CNS): > 100 µM
TGI (SNB-19 CNS): > 100 µM
TGI (EKVX NSCLC): > 100 µM
TGI (UO-31 renal): > 100 µM
TGI (SF-268 CNS): > 100 µM
TGI (NCI-H522 lung): > 100 µM
TGI (A498 renal): > 100 µM
TGI (SK-MEL-28 melanoma): > 100 µM
TGI (COLO 205 colon): > 100 µM
TGI (ACHN renal): > 100 µM
TGI (SNB-75 CNS): > 100 µM
TGI (M19-MEL melanoma): > 100 µM
TGI (HCT-15 colon): > 100 µM
TGI (NCI-H23 lung): > 100 µM
TGI (SK-MEL-2 melanoma): > 100 µM
TGI (SF-539 CNS): > 100 µM
TGI (DMS 114 small cell lung): > 100 µM
TGI (SNB-78 CNS): > 100 µM
TGI (SK-OV-3 ovarian): > 100 µM
TGI (NCI-H460 lung): > 100 µM
TGI (HT29 colon): > 100 µM
TGI (DLD-1 colon): > 100 µM
TGI (IGROV1 ovarian): > 100 µM
TGI (HL-60(TB) leukemia): > 100 µM
TGI (SW-620 colon): > 100 µM
TGI (CCRF-CEM leukemia): > 100 µM
TGI (CAKI-1 renal): > 100 µM
TGI (SN12C renal): > 100 µM
TGI (SF-295 CNS): > 100 µM
TGI (LXFL 529 NSCLC): > 100 µM
TGI (RPMI-8226 leukemia): > 100 µM
TGI (K-562 leukemia): > 100 µM
TGI (HOP-18 NSCLC): > 100 µM

CC1CCN(CCC(=O)CC(c2ccccc2)c2c(O)c3ccccc3oc2=O)CC1 (stereo not given)
TGI (LOX IMVI melanoma): > 100 µM
TGI (NCI-H226 lung): > 100 µM
TGI (786-0 renal): > 100 µM
TGI (RXF 393 renal): > 100 µM
TGI (MOLT-4 leukemia): > 100 µM
TGI (HOP-62 NSCLC): > 100 µM
TGI (TK-10 renal): > 100 µM
TGI (M14 melanoma): > 100 µM
TGI (OVCAR-8 ovarian): > 100 µM
TGI (SK-MEL-5 melanoma): > 100 µM
TGI (RXF-631 renal): > 100 µM
TGI (A549 NSCLC): > 100 µM
TGI (SR leukemia): > 100 µM
TGI (UACC-62 melanoma): > 100 µM
TGI (OVCAR-3 ovarian): > 100 µM
TGI (KM20L2 colon): > 100 µM
TGI (DMS 273 small cell lung): > 100 µM
TGI (U251 CNS): > 100 µM
TGI (SNB-19 CNS): > 100 µM
TGI (EKVX NSCLC): > 100 µM
TGI (UO-31 renal): > 100 µM
TGI (SF-268 CNS): > 100 µM
TGI (NCI-H522 lung): > 100 µM
TGI (A498 renal): > 100 µM
TGI (SK-MEL-28 melanoma): > 100 µM
TGI (COLO 205 colon): > 100 µM
TGI (OVCAR-4 ovarian): > 100 µM
TGI (ACHN renal): > 100 µM
TGI (SNB-75 CNS): > 100 µM
TGI (M19-MEL melanoma): > 100 µM
TGI (HCT-15 colon): > 100 µM
TGI (NCI-H23 lung): > 100 µM
TGI (SK-MEL-2 melanoma): > 100 µM
TGI (UACC-257 melanoma): > 100 µM
TGI (SF-539 CNS): > 100 µM
TGI (DMS 114 small cell lung): > 100 µM
TGI (SNB-78 CNS): > 100 µM
TGI (SK-OV-3 ovarian): > 100 µM
TGI (NCI-H460 lung): > 100 µM
TGI (HT29 colon): > 100 µM
TGI (DLD-1 colon): > 100 µM
TGI (HCT-116 colon): > 100 µM
TGI (IGROV1 ovarian): > 100 µM
TGI (HL-60(TB) leukemia): > 100 µM
TGI (SW-620 colon): > 100 µM
TGI (CCRF-CEM leukemia): > 100 µM
TGI (CAKI-1 renal): > 100 µM
TGI (SF-295 CNS): > 100 µM
TGI (XF 498 CNS): > 100 µM
TGI (RPMI-8226 leukemia): > 100 µM
TGI (K-562 leukemia): > 100 µM
TGI (KM12 colon): > 100 µM

COC1=CC(=C(C#N)C(=Nc2ccccc2)SC)C=C(OC)C1=O
TGI (LOX IMVI melanoma): > 100 µM
TGI (786-0 renal): > 100 µM
TGI (RXF 393 renal): 78 µM
TGI (MOLT-4 leukemia): 53.1 µM
TGI (TK-10 renal): > 100 µM
TGI (HOP-92 NSCLC): 9.97 µM
TGI (OVCAR-8 ovarian): > 100 µM
TGI (SK-MEL-5 melanoma): 42.7 µM
TGI (MALME-3M melanoma): > 100 µM
TGI (RXF-631 renal): > 100 µM
TGI (A549 NSCLC): > 100 µM
TGI (UACC-62 melanoma): > 100 µM
TGI (OVCAR-3 ovarian): > 100 µM
TGI (DMS 273 small cell lung): > 100 µM
TGI (U251 CNS): 2.62 µM
TGI (EKVX NSCLC): > 100 µM
TGI (UO-31 renal): > 100 µM
TGI (NCI-H522 lung): > 100 µM
TGI (A498 renal): 80 µM
TGI (HCC-2998 colon): > 100 µM
TGI (SK-MEL-28 melanoma): > 100 µM
TGI (COLO 205 colon): > 100 µM
TGI (ACHN renal): > 100 µM
TGI (SNB-75 CNS): > 100 µM
TGI (M19-MEL melanoma): > 100 µM
TGI (HCT-15 colon): > 100 µM
TGI (NCI-H23 lung): > 100 µM
TGI (UACC-257 melanoma): > 100 µM
TGI (SF-539 CNS): > 100 µM
TGI (SNB-78 CNS): > 100 µM
TGI (SK-OV-3 ovarian): > 100 µM
TGI (NCI-H460 lung): > 100 µM
TGI (HT29 colon): > 100 µM
TGI (DLD-1 colon): 77.3 µM
TGI (HCT-116 colon): > 100 µM
TGI (IGROV1 ovarian): > 100 µM
TGI (SW-620 colon): > 100 µM
TGI (CCRF-CEM leukemia): 43.5 µM
TGI (CAKI-1 renal): > 100 µM
TGI (SN12C renal): > 100 µM
TGI (SF-295 CNS): > 100 µM
TGI (LXFL 529 NSCLC): 36.2 µM
TGI (RPMI-8226 leukemia): 52.2 µM
TGI (K-562 leukemia): 63.1 µM
TGI (HOP-18 NSCLC): > 100 µM
TGI (KM12 colon): > 100 µM
